Measurements taken from patent US5610177A, “Acylated amino acids as endothelin antagonists” (Warner-Lambert Company, priority 1994, dated 1997).
Like-named read-outs stand apart in the source and are kept apart here. Where no end group is shown, it is not given here.

What was measured:
[1] = molecular target: T1, endothelin receptor of rabbit renal artery vascular smooth muscle cells (Oryctolagus cuniculus, UniProt A5A8K3); type: binding; details: [125I]-ET-1 25 pM, 37° C., 2 hours, read-out: IC50 ERBA-A
T1 sequence (A5A8K3 21-427): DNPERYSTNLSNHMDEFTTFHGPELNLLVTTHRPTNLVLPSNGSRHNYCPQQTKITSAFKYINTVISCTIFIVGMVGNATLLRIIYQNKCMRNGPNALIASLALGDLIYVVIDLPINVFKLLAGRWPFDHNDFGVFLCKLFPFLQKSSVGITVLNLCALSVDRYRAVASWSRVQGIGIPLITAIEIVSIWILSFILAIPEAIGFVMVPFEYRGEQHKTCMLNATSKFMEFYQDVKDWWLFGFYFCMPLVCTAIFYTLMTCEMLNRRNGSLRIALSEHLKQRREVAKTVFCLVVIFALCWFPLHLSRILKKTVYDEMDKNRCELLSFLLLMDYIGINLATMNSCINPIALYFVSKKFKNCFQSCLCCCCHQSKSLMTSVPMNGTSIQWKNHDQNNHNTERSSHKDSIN
Source text: The compounds of Formula I are valuable antagonists of endothelin.

ETB receptors [2] = molecular target: T2, ETB receptors (Homo sapiens, UniProt P24530); test: HERBA-B, [125I]-ET-1 binding to recombinant human ETB receptor expressed in CHO-K1 cell membranes; parameters: expressed in transfected cells; host or cells: CHO-K1 cells (membranes)
T2 sequence (P24530 27-442): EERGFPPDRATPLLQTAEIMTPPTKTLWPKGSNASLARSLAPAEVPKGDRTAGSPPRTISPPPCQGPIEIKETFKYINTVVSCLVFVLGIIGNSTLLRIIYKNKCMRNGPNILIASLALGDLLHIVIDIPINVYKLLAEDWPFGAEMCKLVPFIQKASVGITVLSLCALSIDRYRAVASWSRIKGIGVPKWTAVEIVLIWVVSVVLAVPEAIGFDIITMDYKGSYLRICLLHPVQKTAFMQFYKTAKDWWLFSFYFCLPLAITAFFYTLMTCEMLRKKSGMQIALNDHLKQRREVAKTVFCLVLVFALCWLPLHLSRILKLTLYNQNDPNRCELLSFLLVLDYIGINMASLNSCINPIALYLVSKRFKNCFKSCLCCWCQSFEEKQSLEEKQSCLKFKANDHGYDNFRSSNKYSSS
Procedure: The compounds of Formula I are valuable antagonists of endothelin. […] The above process has also been modified by using human recombinant CHO-K1 cells. […] The gene for human ETB receptor was cloned and inserted into the pRc-CMW expression vector, then transfected into CHO-K1 cells by electroporation. For binding assays, membranes (0.7 mg protein) of CHO-K1 cells expressing recombinant human ETB receptor were used.

ETA = details: cited from earlier work
ETA and ETB receptors [3] = details: cited from earlier work
ETB receptors [4] = molecular target: T2, ETB receptors; test: AAR-B, inhibition of ET-3 stimulated arachidonic acid release in CHO cells expressing recombinant ETB receptors; type: cell-based; parameters: expressed in transfected cells; host or cells: Chinese hamster ovary (CHO) cells; details: ET-3 (1.0 nM) stimulated [3H]arachidonic acid release, read-out: IC50 AAR-B (Antagonist)
[5] = molecular target: T3, endothelin receptor of rat cerebellar membranes (Rattus norvegicus, UniProt P21451); test: Endothelin receptor binding assay-B (ERBA-B), [125I]-ET-1 binding in rat cerebellar membranes; details: [125I]-ET-1 25 pM, 37° C., 2 hours
T3 sequence (P21451 27-442): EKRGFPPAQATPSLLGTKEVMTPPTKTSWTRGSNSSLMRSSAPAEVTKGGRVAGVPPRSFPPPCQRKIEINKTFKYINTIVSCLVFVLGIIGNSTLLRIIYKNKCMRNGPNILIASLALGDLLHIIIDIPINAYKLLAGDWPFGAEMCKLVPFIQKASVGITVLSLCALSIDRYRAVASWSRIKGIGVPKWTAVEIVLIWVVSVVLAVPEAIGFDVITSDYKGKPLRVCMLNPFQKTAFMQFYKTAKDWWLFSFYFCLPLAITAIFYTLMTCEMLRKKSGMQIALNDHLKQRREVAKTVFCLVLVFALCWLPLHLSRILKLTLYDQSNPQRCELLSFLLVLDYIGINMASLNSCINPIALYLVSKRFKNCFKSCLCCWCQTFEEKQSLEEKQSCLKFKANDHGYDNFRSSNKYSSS
Source text: The compounds of Formula I are valuable antagonists of endothelin. […] ENDOTHELIN RECEPTOR BINDING […]-1 BINDING IN RAT CEREBELLAR MEMBRANES […] Count filters for radioactivity in gamma counter.

ETA and ETB receptors [6] = details: rats, cited from earlier work
ETA and ETB receptors [7] = details: rats, cited from earlier work; remark: listed apart in the source
ETA and ETB receptors [8] = details: orally administered; cited from earlier work
endothelin receptor = details: cited from earlier work
[9] = intracerebroventricular, rats; cited from earlier work
endothelin ETA receptor [10] = details: rats; cited from earlier work
endothelin ETA receptor [11] = details: intracisternal, canine subarachnoid hemorrhage model; cited from earlier work
ETA receptor = details: intraperitoneal, rats; cited from earlier work
ETB = details: isolated, endothelium-intact porcine pulmonary arteries; cited from earlier work

Row | Compound | IC50 [1] | IC50 (ETB receptors [2]) | also measured
1 | CC(Cc1ccccc1)(NC(=O)C(Cc1cccc2ccccc12)Cc1cccc2ccccc12)C(=O)O (racemic) [Example 13, Bis-(1-naphthylmethyl)acetyl-(α-methyl-D, L-phenylalanine)] | 14 µM | 6.5 µM | 
2 | CC(Cc1ccc(O)cc1)(NC(=O)C(Cc1cccc2ccccc12)Cc1cccc2ccccc12)C(=O)O (racemic) [Example 14, Bis-(1-naphthylmethyl)acetyl-(α-methyl-D, L-tyrosine)] | 25 µM | 18 µM | 
3 | Cc1noc(NS(=O)(=O)c2cccc3c(N(C)C)cccc23)c1C [5-(Dimethylamino)-N-(3,4-dimethyl-5-isoxazolyl)-1-naphthalenesulfonamide] |  |  | oral antihypertensive effect (ETA): oral antihypertensive effect
4 | Cc1noc(NS(=O)(=O)c2cccc3c(N(C)C)cccc23)c1C [BMS182874] |  |  | ETA/ETB receptor antagonism and selectivity (ETA and ETB receptors [3]): ETA specific antagonists
5 | C[C@](Cc1c[nH]c2ccccc12)(NC(=O)C(Cc1ccc2c(c1)OCO2)Cc1ccc2c(c1)OCO2)C(=O)O [Example 2, Bis-(3,4-methylenedioxyphenylmethyl)acetyl-(α-methyl-D-tryptophan)] | > 25 µM | 1.6 µM | 
6 | C[C@](Cc1c[nH]c2ccccc12)(NC(=O)C(Cc1ccc2ccccc2c1)Cc1ccc2ccccc2c1)C(=O)O [Example 3, Bis-(2-naphthylmethyl)acetyl-(α-methyl-D-tryptophan)] | > 25 µM | 16 µM | 
7 | C[C@](Cc1c[nH]c2ccccc12)(NC(=O)C(Cc1c(F)c(F)c(F)c(F)c1F)Cc1c(F)c(F)c(F)c(F)c1F)C(=O)O [Example 7, Bis-(2,3,4,5,6-pentafluorophenylmethyl)acetyl-(α-methyl-D-tryptophan)] | > 25 µM | 27 µM | 
8 | CC(Cc1cccc2ccccc12)(Cc1cccc2ccccc12)C(=O)N[C@](C)(Cc1c[nH]c2ccccc12)C(=O)O [Example 12, Bis-2-(1-naphthylmethyl)-2-methylacetyl-(α-methyl-D-tryptophan)] | > 25 µM | 10 µM | 
9 | C[C@](Cc1c[nH]c2ccccc12)(NCC(Cc1cccc2ccccc12)Cc1cccc2ccccc12)C(=O)O [Example 15, N-[2-bis-(1-naphthylmethyl)ethyl]-(α-methyl-D-tryptophan)] | 14 µM | 9.2 µM | 
10 | C[C@](Cc1c[nH]c2ccccc12)(NC(=O)C(CC1CCCCC1)CC1CCCCC1)C(=O)O [Example 16, Bis-(cyclohexylmethyl)acetyl-(α-methyl-D-tryptophan)] | > 25 µM | 7.4 µM | 
11 | COc1cccc(Oc2c(NS(=O)(=O)c3ccc(C(C)(C)C)cc3)ncnc2OCCO)c1 [Ro 46-2005] |  |  | effect in renal ischemia (ETA and ETB receptors [6]): protective effect for renal vasoconstriction after renal ischemia; effect in renal ischemia (ETA and ETB receptors [6]; listed as RO 46-2005): effective in models of acute renal ischemia; ETA/ETB receptor antagonism and selectivity (ETA and ETB receptors [3]): non-selective ETA /ETB antagonists; effect in subarachnoid hemorrhage (ETA and ETB receptors [7]): dramatically reduced cerebral vasoconstriction after subarachnoid hemorrhage; effect in subarachnoid hemorrhage (ETA and ETB receptors [7]; listed as RO 46-2005): effective in models of acute renal ischemia and subarachnoid hemorrhage in rats; antihypertensive effect (ETA and ETB receptors [8]): marked antihypertensive effect with a reasonably long duration
12 | COc1ccccc1Oc1c(NS(=O)(=O)c2ccc(C(C)(C)C)cc2)nc(-c2ncccn2)nc1OCCO [Ro 47-0203] |  |  | blood brain barrier crossing (endothelin receptor; inferred from rabbit subarachnoid hemorrhage model): crosses the blood brain barrier; reversal of vasoconstriction (endothelin receptor; rabbit subarachnoid hemorrhage model): effective in a rabbit subarachnoid hemorrhage model in reversing vasoconstriction; ETA/ETB receptor antagonism and selectivity (ETA and ETB receptors [3]): non-selective ETA /ETB antagonists
13 | Endothelin-1 (CSCSSLMDKECVYFCHLDIIW; not fully specified (bridges); cysteine pairing not given here; UniProt P05305 53-73, looked up) [ET-1] |  |  | behavioral effects [9]: evoke several behavioral effects
14 | FR 139317 |  |  | ET-1 induced arrhythmia (endothelin ETA receptor [10]): suppressed; vasoconstriction of the basilar artery (endothelin ETA receptor [11]): significantly reduced the vasoconstriction of the basilar artery; ETA/ETB receptor antagonism and selectivity (ETA and ETB receptors [3]): potent endothelin ETA receptor antagonist; permeability to proteins, glomerular injury and renal function (ETA receptor): reduced abnormal permeability to proteins and limited glomerular injury and prevented renal function deterioration
15 | N-Acetyl-ET [N-Acetyl-ET [10-21,11,15-Ala]] |  |  | vasorelaxation (ETB): caused vasorelaxation

More lines, main results first:

Row | IC50 [1] | IC50 (ETB receptors [2]) | Compound | also measured
16 | 10 µM | 0.57 µM | C[C@](Cc1c[nH]c2ccccc12)(NC(=O)C(Cc1cccc2ccccc12)Cc1cccc2ccccc12)C(=O)O [Example 1, Bis-(1-naphthylmethyl)acetyl-(α-methyl-D-tryptophan)] | IC50 (ETB receptors [4]): 2.5 µM; IC50 [5]: 0.6 µM
17 | > 25 µM | 2.9 µM | Cc1cccc(CC(Cc2cccc(C)c2C)C(=O)N[C@](C)(Cc2c[nH]c3ccccc23)C(=O)O)c1C [Example 4] | 
18 | > 25 µM | 19 µM | C[C@](Cc1c[nH]c2ccccc12)(NC(=O)C(Cc1ccccc1)Cc1ccccc1)C(=O)O [Example 5, Di-benzylacetyl-(α-methyl-D-tryptophan)] | 
19 | 14 µM | 1.4 µM | C[C@](Cc1c[nH]c2ccccc12)(NC(=O)C(Cc1cccc2c1CCCC2)Cc1cccc2c1CCCC2)C(=O)O [Example 6, Bis-(5,6,7,8-tetrahydro-1-naphthylmethyl)acetyl-(α-methyl-D-tryptophan)] | 
20 | > 30 µM |  | C[C@@](Cc1c[nH]c2ccccc12)(NC(=O)C(Cc1cccc2ccccc12)Cc1cccc2ccccc12)C(=O)O [Example 8, Bis-(1-naphthylmethyl)acetyl-(α-methyl-L-tryptophan)] | IC50 [5]: 17 µM
21 | 26 µM | 2.2 µM | C[C@](Cc1c[nH]c2ccccc12)(NC(=O)C(Cc1ccccc1)Cc1cccc2ccccc12)C(=O)O (stereo partly drawn) [Example 9, 2-(1-Naphthylmethyl)-2-benzylacetyl-(α-methyl-D-tryptophan)] | IC50 (ETB receptors [4]): 6.6 µM
22 | > 25 µM | 1.5 µM | Cc1ccccc1CC(Cc1ccccc1C)C(=O)N[C@](C)(Cc1c[nH]c2ccccc12)C(=O)O [Example 10, Bis-(2-methylphenylmethyl)acetyl-(α-methyl-D-tryptophan)] | IC50 (ETB receptors [4]): 9.5 µM
23 | > 25 µM | 4.7 µM | Cc1cccc(CC(Cc2cccc(C)c2)C(=O)N[C@](C)(Cc2c[nH]c3ccccc23)C(=O)O)c1 [Example 11, Bis-(3-methylphenylmethyl)acetyl-(α-methyl-D-tryptophan)] | IC50 (ETB receptors [4]): 9.9 µM
